Bridge positions count the residues as written; N and C are the ends. Peptide text beside a SMILES is read from it. * marks the point of attachment. FITC = O=C1OC2(c3ccc(O)cc3Oc3cc(O)ccc32)c2ccc(NC(=S)*)cc21; Ahx = NCCCCCC(=O)O
Tested on: TE-13 cells co-cultured with T cells
Experiment: Lactate dehydrogenase (LDH) release assay, T cell cytotoxicity
Format: cell-based, human
Settings: TE-13 and T cells at 16:1; FITC-YT-16 1, 2, 4, 8 and 16 µM; overnight, 37 °C; A490; triplicate wells
Text: The experiment in Figure 10 mainly evaluated the activation status of CD4^+ T cells by detection of IL-2 and INF-γ levels in the culture supernatant. The test in Figure 11 mainly evaluated the enhanced cytotoxicity by CD8^+ T cells by detection of lactate dehydrogenase (LDH) release in the culture supernatant. Activated CD8 T cells can recognize tumor cells and kill tumor cells by means of degranulation and Fas/FasL recognition. After the tumor cells were damaged, a cytoplasmic enzyme with name lactate dehydrogenase (LDH) is released from damaged cells into the supernatant and by measuring the levels of LDH, we can evaluate the cytotoxic effect of CD8 T cells. […]
Effect of FITC-YT-16 peptide on T cell cytotoxicity was detected by measuring the release of a cytoplasmic enzyme, lactate dehydrogenase (LDH), from damaged cells into the supernatant by using a colorimetric assay according to cytotoxicity detection kit (Cayman Chemical, Ann Arbor, MI, USA). […] The supernatant was transferred to a new 96-well assay plate and the LDH reaction solution was added to each well and incubated for 30 min at 37 °C before the absorbance was read at 490 nm. […] Triplicate wells were averaged and the percentage of specific lysis was calculated by the following equation: % Cytotoxicity=[Experimental value A490−Spontaneous release A490/Maximum release A490−Spontaneous release A490]∗100

Structure (SMILES): CC[C@H](C)[C@@H]1NC(=O)[C@H](CCSC)NC(=O)[C@@H](NC(=O)[C@H](CCCNC(=N)N)NC(=O)[C@H](Cc2ccc(O)cc2)NC(=O)CCCCCNC(=S)Nc2ccc3c(c2)C(=O)OC32c3ccc(O)cc3Oc3cc(O)ccc32)CSSC[C@@H](C(=O)N[C@H](C(=O)N[C@H](C(=O)O)[C@@H](C)O)[C@@H](C)CC)NC(=O)[C@H](CCCCN)NC(=O)[C@H](Cc2ccc(O)cc2)NC(=O)[C@H](CC(=O)O)NC(=O)[C@H](C)NC(=O)CNC(=O)CNC(=O)[C@H](Cc2ccc(O)cc2)NC(=O)[C@H](CO)NC1=O [FITC-YT-16] ({FITC-Ahx}-YRCMISYGGADYKCIT-OH; disulfide 3-14)
- T cell cytotoxicity, concentration dependence: dose-dependently increased
